For 8 molecules, pKa results are on record in ChEMBL document CHEMBL4304793, “Evaluation of a Series of β-Secretase 1 Inhibitors Containing Novel Heteroaryl-Fused-Piperazine Amidine Warheads” (ACS Med Chem Lett, 2019).

The data set is described as follows: Dissociation constant, pKa of compound. Format: physicochemical.

As for `C[C@@]1(c2cc(NC(=O)c3ccc(C#N)cn3)ccc2F)Cn2cccc2C(N)=N1`, the pKa came out at 10.3.
With `C[C@@]1(c2cc(NC(=O)c3ccc(C#N)cn3)ccc2F)Cn2ncnc2C(N)=N1` the figure was 6.5; with `C[C@@]1(c2cc(NC(=O)c3ccc(C#N)cn3)ccc2F)Cn2nncc2C(N)=N1`, 7.1.
With `C[C@@]1(c2cc(NC(=O)c3ccc(C#N)cn3)ccc2F)Cn2nnnc2C(N)=N1` the figure was 5.1; with `C[C@@]1(c2cc(NC(=O)c3ccc(C#N)cn3)ccc2F)Cn2cnnc2C(N)=N1`, 6.4.
With `C[C@@]1(c2cccc(NC(=O)c3ccc(C#N)cn3)c2)Cn2nccc2C(N)=N1` the figure was 8.5; with `C[C@@]1(c2cc(NC(=O)c3ccc(C#N)cn3)ccc2F)Cn2ccnc2C(N)=N1`, 8.2.
The molecule `C[C@@]1(c2cc(NC(=O)c3ccc(C#N)cn3)ccc2F)Cn2cncc2C(N)=N1` gave a pKa of 9.

The term pKa denotes the negative logarithm of the acid dissociation constant.
